Assay results published in publication PMC6874179, “Development of Macrocycle Kinase Inhibitors for ALK2 Using Fibrodysplasia Ossificans Progressiva‐Derived Endothelial Cells” (JBMR Plus, 2019).

How the values were obtained:
EGFR_L858R = target: T1, EGFR_L858R (Homo sapiens, UniProt P00533, L858R); assay: Proqinase Kinase profiling; type: biochemical; conditions: read-out: % inhibition at 100nM
T1 construct: purchased DiscoverX

PRKD1 = target: T2, PRKD1 (Homo sapiens, UniProt Q15139); assay: Proqinase Kinase profiling; type: biochemical; conditions: read-out: % inhibition at 100nM
T2 construct: purchased DiscoverX

SGK2 = target: T3, SGK2 (Homo sapiens, UniProt Q9HBY8); assay: Proqinase Kinase profiling; type: biochemical; conditions: read-out: % inhibition at 100nM
T3 construct: purchased DiscoverX

INSRR = target: T4, INSRR (Homo sapiens, UniProt P14616); assay: Proqinase Kinase profiling; type: biochemical; conditions: read-out: % inhibition at 100nM
T4 construct: purchased DiscoverX
T4 sequence (P14616 27-1297): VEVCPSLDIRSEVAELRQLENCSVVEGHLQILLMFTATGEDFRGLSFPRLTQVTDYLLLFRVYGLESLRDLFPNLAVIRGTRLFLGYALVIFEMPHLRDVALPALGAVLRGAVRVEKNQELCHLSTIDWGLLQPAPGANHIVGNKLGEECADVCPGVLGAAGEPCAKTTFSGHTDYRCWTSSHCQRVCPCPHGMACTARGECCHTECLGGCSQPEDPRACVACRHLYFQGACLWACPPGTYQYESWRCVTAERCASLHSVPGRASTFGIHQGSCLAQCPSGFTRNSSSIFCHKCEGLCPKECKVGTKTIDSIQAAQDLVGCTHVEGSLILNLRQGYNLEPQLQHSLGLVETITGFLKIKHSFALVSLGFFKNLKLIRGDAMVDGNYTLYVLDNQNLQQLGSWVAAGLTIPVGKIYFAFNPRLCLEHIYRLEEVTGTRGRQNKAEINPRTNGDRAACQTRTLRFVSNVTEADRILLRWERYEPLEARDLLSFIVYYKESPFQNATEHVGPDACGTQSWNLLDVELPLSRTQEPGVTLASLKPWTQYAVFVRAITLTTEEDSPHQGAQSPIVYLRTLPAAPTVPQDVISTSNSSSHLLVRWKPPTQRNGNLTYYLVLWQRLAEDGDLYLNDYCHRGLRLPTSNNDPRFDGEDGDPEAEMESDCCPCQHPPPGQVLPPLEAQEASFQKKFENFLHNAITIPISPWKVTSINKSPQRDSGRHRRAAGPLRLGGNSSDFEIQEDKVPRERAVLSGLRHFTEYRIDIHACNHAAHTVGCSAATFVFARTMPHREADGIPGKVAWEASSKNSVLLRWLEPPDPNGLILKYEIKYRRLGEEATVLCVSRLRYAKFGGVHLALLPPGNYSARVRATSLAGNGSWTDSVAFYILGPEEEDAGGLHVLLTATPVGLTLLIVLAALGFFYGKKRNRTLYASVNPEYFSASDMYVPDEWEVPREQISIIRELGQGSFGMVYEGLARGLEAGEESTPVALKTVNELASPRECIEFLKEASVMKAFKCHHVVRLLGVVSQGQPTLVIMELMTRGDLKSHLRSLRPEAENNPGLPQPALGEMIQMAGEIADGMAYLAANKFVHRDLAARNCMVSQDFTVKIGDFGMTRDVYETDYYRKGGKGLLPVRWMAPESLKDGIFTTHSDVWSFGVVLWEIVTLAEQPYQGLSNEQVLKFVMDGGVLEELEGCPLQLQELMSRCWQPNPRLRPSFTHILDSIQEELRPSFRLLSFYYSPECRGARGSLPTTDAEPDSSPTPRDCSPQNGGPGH

PAK7 = target: T5, PAK7 (Homo sapiens, UniProt Q9P286); assay: Proqinase Kinase profiling; type: biochemical; conditions: read-out: % inhibition at 100nM
T5 construct: purchased DiscoverX

[1] = test system: TGF-β-induced CAGA-LUC reporter activity; assay: TGF-β CAGA-LUC reporter assay in KS483 cells; type: cell-based, mouse; conditions: TGF-β 5 ng/mL 16 hours, compared with LDN-193189
Procedure: Compounds were added for 16 hours at 0.5μM before luciferase activity was measured.
For luciferase reporter assays, cells were seeded in 24-well plates and transfected with DharmaFECT Duo (Fisher Scientific, Landsmeer, The Netherlands), following the recommendations of the manufacturer. 48 hours after transfection the cells were harvested and lysed. […] Each transfection mixture was equalized with empty vector when necessary and every experiment was performed in triplicate.

MAPK10 = target: T6, MAPK10 (Homo sapiens, UniProt P53779); assay: Proqinase Kinase profiling; type: biochemical; conditions: read-out: % inhibition at 100nM
T6 construct: purchased DiscoverX

LRRK2_R1441C = target: T7, LRRK2_R1441C (Homo sapiens, UniProt Q5S007, R1441C); assay: Proqinase Kinase profiling; type: biochemical; conditions: read-out: % inhibition at 100nM
T7 construct: purchased DiscoverX

TSSK1B = target: T8, TSSK1B (Homo sapiens, UniProt Q9BXA7); assay: Proqinase Kinase profiling; type: biochemical; conditions: read-out: % inhibition at 100nM
T8 construct: purchased DiscoverX

ACVRL1 = target: T9, ACVRL1 (Homo sapiens, UniProt P37023); assay: Proqinase Kinase profiling; type: biochemical; conditions: read-out: % inhibition at 100nM
T9 construct: purchased DiscoverX

CDK16_cyclinY = target: T10, CDK16_cyclinY (Homo sapiens, UniProt Q00536); assay: Proqinase Kinase profiling; type: biochemical; conditions: read-out: % inhibition at 100nM
T10 construct: purchased DiscoverX

PDGFRA = target: T11, PDGFRA (Homo sapiens, UniProt P16234); assay: Proqinase Kinase profiling; type: biochemical; conditions: read-out: % inhibition at 100nM
T11 construct: purchased DiscoverX
T11 sequence (P16234 24-1089): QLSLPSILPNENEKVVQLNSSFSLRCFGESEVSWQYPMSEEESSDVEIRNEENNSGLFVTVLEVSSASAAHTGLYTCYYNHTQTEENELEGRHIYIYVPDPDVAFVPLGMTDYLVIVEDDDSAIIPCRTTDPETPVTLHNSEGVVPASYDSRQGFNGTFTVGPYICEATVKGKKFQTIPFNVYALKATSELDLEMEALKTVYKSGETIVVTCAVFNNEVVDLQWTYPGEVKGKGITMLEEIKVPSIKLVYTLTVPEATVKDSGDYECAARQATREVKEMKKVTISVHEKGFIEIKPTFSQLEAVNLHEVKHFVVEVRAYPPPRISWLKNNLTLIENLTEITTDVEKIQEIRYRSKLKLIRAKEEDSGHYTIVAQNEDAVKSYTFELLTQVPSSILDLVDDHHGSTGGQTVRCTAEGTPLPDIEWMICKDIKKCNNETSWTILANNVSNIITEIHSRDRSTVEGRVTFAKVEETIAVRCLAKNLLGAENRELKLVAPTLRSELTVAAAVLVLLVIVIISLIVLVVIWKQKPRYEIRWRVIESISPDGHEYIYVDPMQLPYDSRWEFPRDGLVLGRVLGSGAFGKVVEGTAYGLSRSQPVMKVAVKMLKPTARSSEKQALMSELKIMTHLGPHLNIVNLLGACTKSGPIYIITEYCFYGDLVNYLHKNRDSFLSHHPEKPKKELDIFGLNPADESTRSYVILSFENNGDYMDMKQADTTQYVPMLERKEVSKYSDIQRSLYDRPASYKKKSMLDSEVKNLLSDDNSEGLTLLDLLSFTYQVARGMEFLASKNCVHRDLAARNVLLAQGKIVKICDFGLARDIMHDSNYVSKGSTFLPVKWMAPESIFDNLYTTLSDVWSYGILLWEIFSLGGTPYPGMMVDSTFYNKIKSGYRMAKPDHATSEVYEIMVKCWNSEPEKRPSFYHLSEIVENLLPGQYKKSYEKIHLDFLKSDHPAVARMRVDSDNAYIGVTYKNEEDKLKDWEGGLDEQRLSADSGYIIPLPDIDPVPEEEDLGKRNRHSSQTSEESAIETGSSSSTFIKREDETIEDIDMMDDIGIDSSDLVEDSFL

EGFR_S752-I759del = target: T12, EGFR_S752-I759del (Homo sapiens, UniProt P00533, DEL752-759); assay: Proqinase Kinase profiling; type: biochemical; conditions: read-out: % inhibition at 100nM
T12 construct: purchased DiscoverX

TGFbR1 = target: T13, TGFbR1 (Homo sapiens, UniProt P36897); assay: Proqinase Kinase profiling; type: biochemical; conditions: read-out: % inhibition at 100nM
T13 construct: purchased DiscoverX

PDGFRA_D842V = target: T14, PDGFRA_D842V (Homo sapiens, UniProt P16234, D842V); assay: Proqinase Kinase profiling; type: biochemical; conditions: read-out: % inhibition at 100nM
T14 construct: purchased DiscoverX
T14 sequence (P16234 24-1089 D842V): as the sequence (P16234 24-1089) above, with D819V counted along it

MAPK1 = target: T15, MAPK1 (Homo sapiens, UniProt P28482); assay: Proqinase Kinase profiling; type: biochemical; conditions: read-out: % inhibition at 100nM
T15 construct: purchased DiscoverX

EGFR = target: T16, EGFR (Homo sapiens, UniProt P00533); assay: Proqinase Kinase profiling; type: biochemical; conditions: read-out: % inhibition at 100nM
T16 construct: purchased DiscoverX

MAPK14 = target: T17, MAPK14 (Homo sapiens, UniProt Q16539); assay: Proqinase Kinase profiling; type: biochemical; conditions: read-out: % inhibition at 100nM
T17 construct: purchased DiscoverX

AKT3 = target: T18, AKT3 (Homo sapiens, UniProt Q9Y243); assay: Proqinase Kinase profiling; type: biochemical; conditions: read-out: % inhibition at 100nM
T18 construct: purchased DiscoverX

NTRK2 = target: T19, NTRK2 (Homo sapiens, UniProt Q16620); assay: Proqinase Kinase profiling; type: biochemical; conditions: read-out: % inhibition at 100nM
T19 construct: purchased DiscoverX

MAP3K2 = target: T20, MAP3K2 (Homo sapiens, UniProt Q9Y2U5); assay: Proqinase Kinase profiling; type: biochemical; conditions: read-out: % inhibition at 100nM
T20 construct: purchased DiscoverX

VRK1 = target: T21, VRK1 (Homo sapiens, UniProt Q99986); assay: Proqinase Kinase profiling; type: biochemical; conditions: read-out: % inhibition at 100nM
T21 construct: purchased DiscoverX
T21 sequence (Q99986 whole entry): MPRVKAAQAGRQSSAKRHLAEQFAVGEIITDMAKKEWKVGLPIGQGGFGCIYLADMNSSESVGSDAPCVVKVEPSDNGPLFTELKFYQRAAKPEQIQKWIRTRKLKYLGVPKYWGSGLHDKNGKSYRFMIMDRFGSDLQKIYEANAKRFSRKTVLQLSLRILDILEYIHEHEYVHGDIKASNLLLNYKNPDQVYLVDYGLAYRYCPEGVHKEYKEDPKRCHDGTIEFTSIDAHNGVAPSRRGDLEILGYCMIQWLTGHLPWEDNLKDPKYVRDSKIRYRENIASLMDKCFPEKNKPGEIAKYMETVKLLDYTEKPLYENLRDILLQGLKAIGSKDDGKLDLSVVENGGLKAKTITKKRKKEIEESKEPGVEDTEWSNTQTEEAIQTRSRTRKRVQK

GSK3B = target: T22, GSK3B (Homo sapiens, UniProt P49841); assay: Proqinase Kinase profiling; type: biochemical; conditions: read-out: % inhibition at 100nM
T22 construct: purchased DiscoverX
T22 sequence (P49841 whole entry): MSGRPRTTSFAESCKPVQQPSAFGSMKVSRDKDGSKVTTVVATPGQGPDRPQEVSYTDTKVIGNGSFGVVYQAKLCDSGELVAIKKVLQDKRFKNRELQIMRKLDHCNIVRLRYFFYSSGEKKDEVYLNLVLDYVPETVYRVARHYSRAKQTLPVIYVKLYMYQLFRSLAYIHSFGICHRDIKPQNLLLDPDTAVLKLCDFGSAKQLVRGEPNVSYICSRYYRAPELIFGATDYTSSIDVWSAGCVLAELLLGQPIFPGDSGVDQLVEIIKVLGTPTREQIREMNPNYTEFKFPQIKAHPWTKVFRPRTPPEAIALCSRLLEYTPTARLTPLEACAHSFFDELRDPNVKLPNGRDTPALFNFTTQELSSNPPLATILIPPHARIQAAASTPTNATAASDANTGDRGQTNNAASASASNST

SGK1 = target: T23, SGK1 (Homo sapiens, UniProt O00141); assay: Proqinase Kinase profiling; type: biochemical; conditions: read-out: % inhibition at 100nM
T23 construct: purchased DiscoverX

TEK_Y897S = target: T24, TEK_Y897S (Homo sapiens, UniProt Q02763, Y897S); assay: Proqinase Kinase profiling; type: biochemical; conditions: read-out: % inhibition at 100nM
T24 construct: purchased DiscoverX

RET_R813Q = target: T25, RET_R813Q (Homo sapiens, UniProt P07949, R813Q); assay: Proqinase Kinase profiling; type: biochemical; conditions: read-out: % inhibition at 100nM
T25 construct: purchased DiscoverX

NEK3 = target: T26, NEK3 (Homo sapiens, UniProt P51956); assay: Proqinase Kinase profiling; type: biochemical; conditions: read-out: % inhibition at 100nM
T26 construct: purchased DiscoverX
T26 sequence (P51956 whole entry): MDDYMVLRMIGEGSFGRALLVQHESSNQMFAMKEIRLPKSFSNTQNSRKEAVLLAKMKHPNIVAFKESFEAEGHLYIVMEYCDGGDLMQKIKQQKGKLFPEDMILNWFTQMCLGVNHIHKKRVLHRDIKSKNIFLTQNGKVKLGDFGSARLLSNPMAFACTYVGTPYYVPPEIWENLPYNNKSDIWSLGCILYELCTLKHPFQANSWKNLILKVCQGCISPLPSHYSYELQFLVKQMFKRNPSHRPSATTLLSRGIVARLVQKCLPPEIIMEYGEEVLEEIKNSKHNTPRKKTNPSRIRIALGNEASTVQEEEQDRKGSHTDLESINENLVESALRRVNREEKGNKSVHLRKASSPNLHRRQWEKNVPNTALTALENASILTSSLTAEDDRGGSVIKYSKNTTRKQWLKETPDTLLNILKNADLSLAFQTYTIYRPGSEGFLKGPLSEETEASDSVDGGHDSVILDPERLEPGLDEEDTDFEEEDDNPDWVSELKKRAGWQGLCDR

RPS6KB1 = target: T27, RPS6KB1 (Homo sapiens, UniProt P23443); assay: Proqinase Kinase profiling; type: biochemical; conditions: read-out: % inhibition at 100nM
T27 construct: purchased DiscoverX
T27 sequence (P23443 whole entry): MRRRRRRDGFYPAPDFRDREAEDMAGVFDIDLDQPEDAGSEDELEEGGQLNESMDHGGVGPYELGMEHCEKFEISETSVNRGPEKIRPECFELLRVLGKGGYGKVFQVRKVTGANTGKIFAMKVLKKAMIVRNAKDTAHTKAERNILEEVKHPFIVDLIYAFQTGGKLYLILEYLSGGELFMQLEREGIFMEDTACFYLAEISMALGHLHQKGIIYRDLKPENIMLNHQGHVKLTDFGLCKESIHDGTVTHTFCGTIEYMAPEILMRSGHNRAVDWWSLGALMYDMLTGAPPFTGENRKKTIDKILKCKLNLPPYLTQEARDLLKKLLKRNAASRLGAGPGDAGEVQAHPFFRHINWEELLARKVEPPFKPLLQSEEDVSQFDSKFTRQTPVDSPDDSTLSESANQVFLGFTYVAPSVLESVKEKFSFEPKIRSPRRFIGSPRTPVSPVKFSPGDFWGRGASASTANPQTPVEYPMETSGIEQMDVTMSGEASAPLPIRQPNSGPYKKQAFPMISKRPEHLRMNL

GRK5 = target: T28, GRK5 (Homo sapiens, UniProt P34947); assay: Proqinase Kinase profiling; type: biochemical; conditions: read-out: % inhibition at 100nM
T28 construct: purchased DiscoverX

HIPK2 = target: T29, HIPK2 (Homo sapiens, UniProt Q9H2X6); assay: Proqinase Kinase profiling; type: biochemical; conditions: read-out: % inhibition at 100nM
T29 construct: purchased DiscoverX

PTK6 = target: T30, PTK6 (Homo sapiens, UniProt Q13882); assay: Proqinase Kinase profiling; type: biochemical; conditions: read-out: % inhibition at 100nM
T30 construct: purchased DiscoverX

NTRK3 = target: T31, NTRK3 (Homo sapiens, UniProt Q16288); assay: Proqinase Kinase profiling; type: biochemical; conditions: read-out: % inhibition at 100nM
T31 construct: purchased DiscoverX

CDK1_cyclinB = target: T32, CDK1_cyclinB (Homo sapiens, UniProt P06493); assay: Proqinase Kinase profiling; type: biochemical; conditions: read-out: % inhibition at 100nM
T32 construct: purchased DiscoverX

MARK2 = target: T33, MARK2 (Homo sapiens, UniProt Q7KZI7); assay: Proqinase Kinase profiling; type: biochemical; conditions: read-out: % inhibition at 100nM
T33 construct: purchased DiscoverX

LRRK2 = target: T34, LRRK2 (Homo sapiens, UniProt Q5S007); assay: Proqinase Kinase profiling; type: biochemical; conditions: read-out: % inhibition at 100nM
T34 construct: purchased DiscoverX

TLK2 = target: T35, TLK2 (Homo sapiens, UniProt Q86UE8); assay: Proqinase Kinase profiling; type: biochemical; conditions: read-out: % inhibition at 100nM
T35 construct: purchased DiscoverX
T35 sequence (Q86UE8 whole entry): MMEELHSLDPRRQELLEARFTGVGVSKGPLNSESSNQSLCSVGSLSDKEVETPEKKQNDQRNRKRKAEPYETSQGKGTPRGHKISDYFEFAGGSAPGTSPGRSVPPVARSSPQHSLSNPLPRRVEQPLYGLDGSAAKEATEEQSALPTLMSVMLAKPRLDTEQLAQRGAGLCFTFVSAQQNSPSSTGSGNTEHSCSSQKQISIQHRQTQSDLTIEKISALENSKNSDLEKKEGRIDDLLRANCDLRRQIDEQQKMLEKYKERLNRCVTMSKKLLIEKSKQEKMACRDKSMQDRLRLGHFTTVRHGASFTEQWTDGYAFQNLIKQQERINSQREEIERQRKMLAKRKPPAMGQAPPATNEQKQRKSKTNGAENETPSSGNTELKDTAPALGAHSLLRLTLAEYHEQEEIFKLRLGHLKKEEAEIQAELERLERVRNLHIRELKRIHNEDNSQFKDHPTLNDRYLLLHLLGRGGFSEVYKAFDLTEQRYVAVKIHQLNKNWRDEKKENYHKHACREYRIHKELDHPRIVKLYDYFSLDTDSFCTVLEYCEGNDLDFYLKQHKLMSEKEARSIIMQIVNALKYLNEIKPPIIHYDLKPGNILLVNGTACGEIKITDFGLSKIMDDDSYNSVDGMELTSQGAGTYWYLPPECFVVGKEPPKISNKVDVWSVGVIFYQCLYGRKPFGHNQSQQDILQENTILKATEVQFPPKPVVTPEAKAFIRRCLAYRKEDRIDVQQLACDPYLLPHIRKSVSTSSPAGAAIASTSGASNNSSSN

ZAK = target: T36, ZAK (Homo sapiens, UniProt Q9NYL2); assay: Proqinase Kinase profiling; type: biochemical; conditions: read-out: % inhibition at 100nM
T36 construct: purchased DiscoverX

RET_V804L = target: T37, RET_V804L (Homo sapiens, UniProt P07949, V804L); assay: Proqinase Kinase profiling; type: biochemical; conditions: read-out: % inhibition at 100nM
T37 construct: purchased DiscoverX

HIPK4 = target: T38, HIPK4 (Homo sapiens, UniProt Q8NE63); assay: Proqinase Kinase profiling; type: biochemical; conditions: read-out: % inhibition at 100nM
T38 construct: purchased DiscoverX

BMPR1A = target: T39, BMPR1A (Homo sapiens, UniProt P36894); assay: Proqinase Kinase profiling; type: biochemical; conditions: read-out: % inhibition at 100nM
T39 construct: purchased DiscoverX

SMILES | inhibition at 0.1 µM (EGFR_L858R) [%] | inhibition at 0.1 µM (PRKD1) [%] | inhibition at 0.1 µM (SGK2) [%] | inhibition at 0.1 µM (INSRR) [%] | inhibition at 0.1 µM (PAK7) [%] | Inhibitory effect on TGF-β-induced gene transcription (CAGA-LUC) [1] | inhibition at 0.1 µM (MAPK10) [%] | inhibition at 0.1 µM (LRRK2_R1441C) [%] | inhibition at 0.1 µM (TSSK1B) [%] | inhibition at 0.1 µM (ACVRL1) [%] | inhibition at 0.1 µM (CDK16_cyclinY) [%] | inhibition at 0.1 µM (PDGFRA) [%] | inhibition at 0.1 µM (EGFR_S752-I759del) [%] | inhibition at 0.1 µM (TGFbR1) [%] | inhibition at 0.1 µM (PDGFRA_D842V) [%] | inhibition at 0.1 µM (MAPK1) [%] | inhibition at 0.1 µM (EGFR) [%] | inhibition at 0.1 µM (MAPK14) [%] | inhibition at 0.1 µM (AKT3) [%] | inhibition at 0.1 µM (NTRK2) [%] | further results
Clc1cc2cc(c1)-c1cnn3ccc(nc13)NCCOCCO2 [OD36] | 11 | -11 | 6 | 0 | 8 | significantly less inhibitory effect | 17 | 56 | 9 | 88 | 12 | 29 | 17 | 5 | 47 | 10 | 3 | -4 | -1 | 28 | inhibition at 0.1 µM (MAP3K2): 7%; inhibition at 0.1 µM (VRK1): -4%; inhibition at 0.1 µM (GSK3B): 11%; inhibition at 0.1 µM (SGK1): 16%; inhibition at 0.1 µM (TEK_Y897S): 12%; inhibition at 0.1 µM (RET_R813Q): 45%; inhibition at 0.1 µM (NEK3): 22%; inhibition at 0.1 µM (RPS6KB1): -9%; inhibition at 0.1 µM (GRK5): 1%; inhibition at 0.1 µM (HIPK2): 16%; inhibition at 0.1 µM (PTK6): 46%; inhibition at 0.1 µM (NTRK3): 17%; inhibition at 0.1 µM (CDK1_cyclinB): 9%; inhibition at 0.1 µM (MARK2): 11%; inhibition at 0.1 µM (LRRK2): 53%; inhibition at 0.1 µM (TLK2): 31%; inhibition at 0.1 µM (ZAK): 70%; inhibition at 0.1 µM (RET_V804L): -10%; inhibition at 0.1 µM (HIPK4): 47%; inhibition at 0.1 µM (BMPR1A): 9%
Cc1cc2cc(c1)-c1cnn3ccc(nc13)NCCNC(=O)CCN(C)C2 [OD52] | -23 | -22 | -1 | 6 | 5 | significantly less inhibitory effect | 1 | 16 | -5 | 89 | -2 | -12 | -15 | 4 | 17 | -1 | -14 | 1 | 2 | 28 | inhibition at 0.1 µM (MAP3K2): 14%; inhibition at 0.1 µM (VRK1): -15%; inhibition at 0.1 µM (GSK3B): -9%; inhibition at 0.1 µM (SGK1): 22%; inhibition at 0.1 µM (TEK_Y897S): -31%; inhibition at 0.1 µM (RET_R813Q): 37%; inhibition at 0.1 µM (NEK3): 6%; inhibition at 0.1 µM (RPS6KB1): -2%; inhibition at 0.1 µM (GRK5): 2%; inhibition at 0.1 µM (HIPK2): -2%; inhibition at 0.1 µM (PTK6): 0%; inhibition at 0.1 µM (NTRK3): 24%; inhibition at 0.1 µM (CDK1_cyclinB): 6%; inhibition at 0.1 µM (MARK2): -9%; inhibition at 0.1 µM (LRRK2): 10%; inhibition at 0.1 µM (TLK2): -5%; inhibition at 0.1 µM (ZAK): 6%; inhibition at 0.1 µM (RET_V804L): -8%; inhibition at 0.1 µM (HIPK4): 10%; inhibition at 0.1 µM (BMPR1A): -7%
